Laboratory results as given in patent US20240316051A1, “A PHARMACEUTICAL COMBINATION AND USE THEREOF” (Ascentage Pharma (Suzhou) Co., Ltd., priority 2021, published 2024).

Experiments:
EED (1-441)-His protein = target: T1, EED (1-441)-His protein (Homo sapiens, UniProt O75530); test: EED-H3K27Me3 peptide competition binding assay by AlphaScreen; settings: Table 4A, read-out: Alpha screen
T1 construct: 20 nM EED (1-441)-His protein
Procedure, shortened: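 EED(1-441)-His was preincubated 15 min with compound, then biotin-H3K27Me3(19-33) peptide added for 30 min; both were added as 20 nM solutions in 25 mM HEPES pH 8, 0.02% Tween-20, 0.5% BSA. Ni-chelate acceptor and streptavidin donor beads (10 μg/ml each final) were added for 1 h in the dark at RT. Signal read at 615 nm (680 nm excitation), normalised to controls and fitted to dose-response for IC50.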

[1] = tested on: human B cell lymphoma cell KARPAS422; test: Cell proliferation (WST-8), KARPAS422, 7 days; type: cell-based; settings: KARPAS-422, 168 h, WST-8, Table 4A, read-out: Karpas Cell line
Method: (§1) Analysis of Cell Proliferation:
(§2) To assess the effect of PRC2 inhibition on cell growth, cells were seeded in 96-well cell culture plates at a density of 2 000-3 000 cells/well in 200 μL of culture medium, and treated with serially diluted compounds for 7 days at 37° C. in an atmosphere of 5% CO2. Cell growth was evaluated by a […] WST-8 assay (Dojindo Molecular Technologies) using a Tecan Infinite M1000 multimode microplate reader (Tecan, Morrisville, NC). The WST-8 reagent was added to the plate, incubated for 1-4 h, and read at 450 nm. The readings were normalized to the DMSO-treated cells, and the IC50 was calculated by nonlinear regression analysis using GraphPad Prism 6 software

Pfeiffer Cell line = test: Cell proliferation, Pfeiffer cell line; type: cell-based; settings: Homo sapiens, anti-proliferative IC50, Table 4A
Method: as §1, §2

T1 sequence (O75530 whole entry): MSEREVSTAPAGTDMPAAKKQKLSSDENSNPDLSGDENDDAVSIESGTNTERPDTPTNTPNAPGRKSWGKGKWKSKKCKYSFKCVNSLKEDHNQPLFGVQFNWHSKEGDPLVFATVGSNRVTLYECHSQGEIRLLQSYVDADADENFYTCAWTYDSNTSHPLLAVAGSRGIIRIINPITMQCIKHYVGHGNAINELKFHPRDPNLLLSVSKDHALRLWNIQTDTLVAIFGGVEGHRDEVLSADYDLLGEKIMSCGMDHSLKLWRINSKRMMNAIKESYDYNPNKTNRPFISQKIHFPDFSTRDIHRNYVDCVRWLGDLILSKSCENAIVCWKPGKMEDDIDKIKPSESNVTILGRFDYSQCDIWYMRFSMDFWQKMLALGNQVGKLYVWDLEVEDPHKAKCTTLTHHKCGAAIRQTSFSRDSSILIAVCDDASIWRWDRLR

IC50 (EED (1-441)-His protein): 11.1 nM
IC50 [1]: 8.67 nM
Compound: O=C1c2ncn3c(NCc4c(F)ccc5c4CCO5)ncc(c23)-c2sccc2CN1C1CC1 [Compound 87, 4-cyclopropyl-11-(((5-fluoro-2,3-dihydrobenzofuran-4-yl)methyl)amino)-4,5-dihydro-3H-8-thia-2,4, 10,11a-tetraazacyclopenta[4,5]cycloocta[1,2,3-cd] inden-3-one]
IC50 (Pfeiffer Cell line): 0.018 nM
